Assay results from patent EP4678639A1, “SALT OF BENZIMIDAZOLE DERIVATIVE” (JW Pharmaceutical Corporation, priority 2023, dated 2024).
“Also recorded” adds a separate entry of the source. Counter-ions that a name gives are not always drawn.

How the values were obtained:
[1] = Solid-state accelerated stability test (40 ± 2 °C/RH 75 ± 5 %); conditions: for Change (%) Degradant: 1 month vs initial; for Initial (%) Degradant: degradant of Formula 4
Procedure: (§1) Operation and Calculation: The blank solution, standard solution, and test solution were sequentially tested under the instrument operating conditions according to the liquid chromatography method in the General Test Methods of the 12th Edition of the Korean Pharmacopoeia, and the amount of related substances was calculated using the following equation. Amount of each related; substance (%) = (AT)/(AS) × (CS)/(CT) × (Molecular weight; of the sample)/(Molecular weight; of the standard; product) × P × (1)/(RR; F) [formula] AT = Area of each related substance peak obtained from the test solution AS = Area of the tegoprazan peak obtained from the standard solution CS = Concentration of standard solution (mg/mL) CT = Concentration of test solution (mg/mL) P = Purity/Assay/Potency (%) of standard product RRF = Relative response factor (1.0)
(§2) A solid-state stability comparative test was conducted on each of the above-mentioned prepared tegoprazan acid addition salts. The stability comparative test was conducted for 1 month under the conditions shown in Table 6 below in accordance with The International Council for Harmonisation of Technical Requirements for Pharmaceuticals for Human Use (ICH) guideline, and the purity of the acid addition salt, total related substances, and the content of degradants were measured by HPLC at the initial time point and after 1 month. Total related substances and degradants were measured according to the related substance test method (HPLC).

[2] = Photostability test, ultraviolet light (200 W·hr/m2) exposure; conditions: for After Ultraviolet Light Exposure (200 W hr/m2)(%) Degradant / After Ultraviolet Light Exposure (200 W hr/m2)(%) Total Related substances: Table 10, UV 200 W·hr/m2, PE bag; for Change (%) Degradant: Table 10, after UV exposure vs initial; for Initial (%) Degradant / Initial (%) Total Related substances: Table 10, initial
Procedure: A photostability comparative test was conducted on each of the above-mentioned prepared tegoprazan acid addition salts. The test was conducted by exposing the sample to light with an energy of 200 W hr/m^2 of ultraviolet light and 1.2 Mlux hr of visible light in accordance with The International Council for Harmonisation of Technical Requirements for Pharmaceuticals for Human Use (ICH) guideline, with the samples packaged in a single PE bag and spread thinly enough to ensure exposure to the light source, taking humidity stability into consideration. The purity of the acid addition salts and the change in the amount of degradants at the initial time point and after exposure to ultraviolet light or visible light were measured by HPLC.

[3] = Photostability test, visible light (1.2 Mlux·hr) exposure; conditions: for Change (%) Degradant: Table 11, after exposure vs initial; for Initial (%) Degradant / Initial (%) Total Related substances: Table 11, initial; for After (%) Degradant / After (%) Total Related substances: Table 11 under heading Visible Light (1.2 Mlux-hr) Exposure Test
[4] = Solid-state stress stability test (humidity 90 % RH); conditions: for absorb moisture and deliquesce / melted / Remarks: 90 % RH; for Remarks: 1 month, state of the solid; for Initial (%) Degradant / Initial (%) Total Related substances: Table 9, initial
Procedure: as §1, §2
3) Stress Stability (humidity 90 % RH)

[5] = Solid-state stress stability test (temperature 60 °C); conditions: for After 1 Month (%) Degradant / After 1 Month (%) Total Related substances / Change (%) Degradant: 60 °C; for Change (%) Degradant: 1 month vs initial; for Initial (%) Degradant / Initial (%) Total Related substances: Table 8, initial
Procedure: as §1, §2
2) Stress Stability Test (temperature 60 °C)

[6] = Liquid stability comparative test (20 mg/mL in purified water, 40 °C, 24 hours, HPLC); format: physicochemical; conditions: for After 24 hours Purity (%) / After 24 hours Degradant (%): 40 °C; for solid precipitation / solution state: stored at 40 °C for 24 hours
Procedure: The analysis conditions are as follows.
Each sample was dissolved in purified water to prepare a solution with a concentration of 20 mg/mL, stored at an external temperature of 40 °C, and analyzed by HPLC at the initial time point and after 24 hours to measure purity, and the change in the generated degradant (Formula 4) was measured. The analysis of total related substances and degradants was performed by taking a liquid from a solution prepared at a concentration of 20 mg/mL, diluting it to a concentration of 4 mg/mL with the diluent of the related substance test method (HPLC), and measuring it as a test solution, and analyzing it according to the related substance test method (HPLC).

[7] = 40 ± 2 °C / RH 75 ± 5 %, 1 month
[8] = 20 mg/mL in purified water, initial time point
[9] = degradant of Formula 4, 20 mg/mL in purified water

SMILES | After 1 Month (%) Degradant [1, 7] [%] | After 1 Month (%) Total Related substances [1, 7] [%] | Change (%) Degradant ([1]; 40 ± 2 °C / RH 75 ± 5 %) [%] | Initial (%) Total Related substances ([1]; Table 7, initial) [%] | Initial (%) Degradant ([1]; Table 7, initial) [%] | After Ultraviolet Light Exposure (200 W hr/m2)(%) Degradant [2] [%] | After Ultraviolet Light Exposure (200 W hr/m2)(%) Total Related substances [2] [%] | Change (%) Degradant [2] [%] | Initial (%) Degradant [2] [%] | Initial (%) Total Related substances [2] [%] | Change (%) Degradant [3] [%] | Initial (%) Degradant [3] [%] | Initial (%) Total Related substances [3] [%] | After (%) Degradant [3] [%] | After (%) Total Related substances [3] [%] | Remarks [4] | Initial (%) Degradant [4] [%] | Initial (%) Total Related substances [4] [%] | After 1 Month (%) Degradant [5] [%] | After 1 Month (%) Total Related substances [5] [%] | further results
Cc1nc2c(O[C@H]3CCOc4cc(F)cc(F)c43)cc(C(=O)N(C)C)cc2[nH]1 [Phosphate Salt] | 0.205 | 0.327 | 0.120 | 0.254 | 0.085 | 0.096 | 0.277 | 0.011 | 0.085 | 0.254 | 0.055 | 0.085 | 0.254 | 0.140 | 0.449 | Melted | 0.085 | 0.254 | 1.668 | 2.423 | After 1 Month (%) Purity [1, 7]: 99.6%; Initial (%) Purity ([1]; Table 7, initial): 99.7%; absorb moisture and deliquesce / melted [4]: absorb moisture and deliquesce; Change (%) Degradant [5]: 1.583%; Initial (%) Degradant [5]: 0.085%; Initial (%) Total Related substances [5]: 0.254%; After 24 hours Purity (%) ([6]; 20 mg/mL in purified water): Solid precipitated; Initial Purity (%) [6, 8]: 99.97%; After 24 hours Degradant (%) [6, 9]: Solid precipitated; Initial Degradant (%) ([6]; degradant of Formula 4, 20 mg/mL in purified water, initial time point): 0.010%; solid precipitation / solution state [6]: solid precipitation
Cc1nc2c(O[C@H]3CCOc4cc(F)cc(F)c43)cc(C(=O)N(C)C)cc2[nH]1 [Pidolate Salt] | 0.003 | 0.146 | 0.002 | 0.145 | 0.001 | 0.020 | 0.266 | 0.019 | 0.001 | 0.145 | 0.067 | 0.001 | 0.145 | 0.068 | 0.463 | Melted | 0.001 | 0.145 | 0.088 | 0.353 | Change in Quality (%) Accelerated (4 weeks) Degradant ([1]; Table 12 summary): 0.002%; Change in Quality (%) Accelerated (4 weeks) Purity ([1]; Table 12 summary): -0.001%; purity change after 1 month ([1]; accelerated stability): ≤ 0.1%; Change in Quality (%) Light (Ultraviolet) Degradant ([2]; Table 12 summary): 0.019%; Change in Quality (%) Light (Ultraviolet) Purity ([2]; Table 12 summary): 0.121%; Change in Quality (%) Light (Visible) Degradant ([3]; Table 12 summary): 0.067%; absorb moisture and deliquesce / melted ([4]; listed as pidolate): deliquesced; absorb moisture and deliquesce / melted ([4]; listed as pidolate salt): absorb moisture and deliquesce; also recorded: melted; Change in Quality (%) 90 % RH (4 weeks) Degradant ([4]; Table 12 summary): Melted; Change in Quality (%) 90 % RH (4 weeks) Purity ([4]; Table 12 summary): Melted; Change (%) Degradant [5]: 0.087%; Initial (%) Degradant [5]: 0.001%; Initial (%) Total Related substances [5]: 0.145%; Change in Quality (%) 60 °C (4 weeks) Degradant ([5]; Table 12 summary): 0.087%; Change in Quality (%) 60 °C (4 weeks) Purity ([5]; Table 12 summary): -0.208%; After 24 hours Purity (%) ([6]; 20 mg/mL in purified water): Solid precipitated; Initial Purity (%) [6, 8]: 99.98%; After 24 hours Degradant (%) [6, 9]: Solid precipitated; solid precipitation / solution state ([6]; listed as pidolate): a solid precipitated; solid precipitation / solution state ([6]; listed as pidolate salt): solid precipitation; also recorded: solids were precipitated
